Experiment [1] concerns aerobic bacterial spores. Nature of the experiment: Example 3 board machine biocide programs: aerobic spore content of final board. Also on record: species or system bacteria. The text has this:
(§1) This example compares technical performance of two different biocide programs in the broke system of a 3-ply board machine producing food-packaging board. Broke system is a part of the wet-end of the board making process. This board machine has set a hygiene target for the final board that it should contain aerobic bacterial spores less than 1000 CFU, and preferably less than 250 CFU, per gram of dry board.
(§2) In this experiment, for the first period (Days 1-10) the machine was running a biocide program consisting of stabilized active chlorine (MCDMH) and glutaraldehyde. For the second period, the machine was running chlorine dioxide, a non-stabilized oxidizer, as the biocide. It was running for 10 days starting from a shutdown (Days 15-25). Third period (Days 26-47) was run with the same MCDMH and glutaraldehyde program as the first period. During this experiment technical performance of the two different biocide programs was monitored at selected dates by several means: on-line Redox monitoring system collecting Redox values at every 10 minutes (results are shown as daily average mV values); measuring aerobic spore content of the final board samples; and by measuring aerobic bacterial spore quantities from different process locations by using agar plate cultivation methods (pasteurization at 82° C. for 20 min, followed by cultivation on Plate Count Agar for 2 days at +37° C.).

Experiment [2] relates to aerobic bacterial spores. Put plainly: Example 3 board machine biocide programs: aerobic bacterial spores from process locations. Also on record: species or system bacteria. Conditions: for ΔSpore content within the broke system: difference between inlet and outlet.
Source text: as §1, §2

Experiment [3] has as its system Total aerobic bacteria (mill's authentic bacterial population). Put plainly: Example 2 laboratory broke storage test: total aerobic bacteria by agar plate cultivation. The experiment is classed as cell-based. On the procedure:
(§3) This laboratory test was performed with broke sample taken from an alkaline board machine producing 3-ply food-packaging board and the sample included the mill's authentic bacterial population in it. The sample was divided in two different containers, one stored as such and the second one amended with biocide, 50 mg/l of glutaraldehyde as active agent. Containers were closed and stored at +45° C. without mixing i.e. under conditions that simulate situation in broke storage tower during a machine shutdown. Total aerobic bacteria and aerobic spore contents were determined by using conventional agar plate cultivation methods (plate count agar, 2 days incubation at +37° C.) at the beginning of the test and after 3 days of storage time, along with pH and redox measurements.

Experiment [4] has as its system aerobic spores. Nature of the experiment: Example 2 laboratory broke storage test: aerobic spore content by agar plate cultivation. The class given is cell-based, bacteria. On the procedure:
as §3

In experiment [5] the test system is aerobic bacterial spores. Put plainly: Example 1 laboratory broke test: aerobic bacterial spores by agar plate cultivation. Conditions: for Bacterial spores: 10 mg/l as total active chlorine, +45° C. The class given is cell-based, bacteria. On the procedure:
(§4) This laboratory test compared efficacy of two oxidizing biocides, namely free active chlorine and stabilized active chlorine, in killing of vegetative bacterial cells and in controlling of bacterial spore formation. Test was performed with authentic bacterial population of a broke sample taken from couch pit of a board machine making 3-ply food-packaging board. Broke sample was divided in equal proportions. Two reference samples were stored as such, the “free active chlorine” sample was treated with sodium hypochlorite, and the “stabilized active chlorine” sample was treated with sodium hypochlorite stabilized by 5,5-dimethylhydantoin (mixed in 1:1 molar ratio to form monochloro-5,5-dimethylhydantoin, MCDMH). Both forms of active chlorine were dosed at 10 ppm (=mg/l as total active chlorine Cl2). Broke samples were stored at +45° C. without mixing. Total aerobic bacteria and aerobic bacterial spores were quantified by using conventional agar plate cultivation methods (Plate Count Agar, incubation at +37° C. for 2 days) at the beginning of the test (untreated reference samples) and after 1 and 2 days of contact time. Broke pH and Redox (mV) values were also monitored.

For experiment [6], the system named is Total aerobic bacteria (authentic bacterial population of a broke sample). Put plainly: Example 1 laboratory broke test: total aerobic bacteria by agar plate cultivation. The class given is cell-based. Particulars: for Total aerobic bacteria: 10 mg/l as total active chlorine, +45° C. On the procedure:
as §4

Where [7] appears, read: Day 15, second period (Days 15-25).
Setting [8] is: Day 19, second period (Days 15-25).
Where [9] appears, read: Day 25, second period (Days 15-25).
Where [10] appears, read: broke, 50 mg/l as active agent, +45° C., closed, after 3 days storage time.

The structures appear in SMILES notation. Where only a bound is given, the exact number is not on record here.

For `[O][Cl+][O-]` [chlorine dioxide], the “Bacterial Spores in Final Board” value in experiment [1] (setting [7]) stood at 520 CFU/g; in experiment [1] (setting [8]), 5530 CFU/g; in experiment [1] (Day 21, second period (Days 15-25)), 9580 CFU/g; in experiment [1] (setting [9]), 3210 CFU/g. Moreover, the “spore content in the final board, highest value” in experiment [1] (second period (Days 15-25)) is on record as ≤ 9580 CFU/g. The “Aerobic Bacterial Spores in process, High consistency (4-6 w/w-%) broke tower” value in experiment [2] (setting [7]) worked out at 440 CFU/ml; in experiment [2] (setting [8]), 1100 CFU/ml; in experiment [2] (setting [9]) it was 950 CFU/ml. Besides, the “Aerobic Bacterial Spores in process, Incoming Pulp” value came to 20 CFU/ml in experiment [2] (setting [7]) and 60 CFU/ml in experiment [2] (setting [8]). In addition, the figures for the “Aerobic Bacterial Spores in process, Low consistency (1-4 w/w-%) broke tower” value in experiment [2] (setting [7]), in experiment [2] (setting [8]) and in experiment [2] (setting [9]) were 250 CFU/ml, 610 CFU/ml and 850 CFU/ml, respectively. For the same compound, the “ΔSpore content within the broke system” value in experiment [2] (Day 15, second period) is recorded as “+190 CFU/ml”; in experiment [2] (Day 19, second period) it was “+490 CFU/ml”; in experiment [2] (Day 25, second period), “+100 CFU/ml”. In addition, the “spore formation in the broke system” value in experiment [2] (second period (Days 15-25)) is given as “triggered intensive spore formation”. The “spore quantities in the high consistency broke tower” value in experiment [2] (second period (Days 15-25), maximum) is recorded as “up to 1100 CFU/ml”.

With `O=CCCCC=O` [glutaraldehyde], the “killing effect” value in experiment [3] (50 mg/l, 3 days of storage) was “did not have a long-lasting killing effect”. Moreover, the “total aerobic bacteria relative to the untreated reference” value in experiment [3] (50 mg/l, after 3 days of storage) is on record as 40%. Further, in experiment [3] (setting [10]), the Total aerobic bacteria was 2×10^7 CFU/ml. In addition, the “spore formation in the broke sample” value in experiment [4] (50 mg/l, 3 days of storage) is “not triggering any spore formation”. Also, the Bacterial spores in experiment [4] (setting [10]) is 80 CFU/ml.

On to `[Na+].[O-]Cl` [Na-hypochlorite, sodium hypochlorite], for which the Bacterial spores in experiment [5] (1 days storage time) worked out at 60 CFU/ml; in experiment [5] (2 days storage time), 670 CFU/ml. Also, the “increase in the quantity of aerobic spores” value in experiment [5] (10 ppm, 1 day to 2 days storage (60 to 670 CFU/ml)) was 10 fold. Also, the Total aerobic bacteria was 4 × 10^5 CFU/ml in experiment [6] (broke, 1 days storage time) and 2 × 10^7 CFU/ml in experiment [6] (broke, 2 days storage time). In addition, the “killing effect” value in experiment [6] (broke, 10 ppm dosing level) is listed as “did not demonstrate any longer-term killing effect”. The “total aerobic bacteria content” value in experiment [6] (broke, 10 ppm, after 1 day of storage) is 4×10^5 CPU/ml.

Regarding `CC1(C)NC(=O)N(Cl)C1=O` [MCDMH, monochloro-5,5-dimethylhydantoin], in experiment [2] (first period (Days 1-10)), the “spores in incoming pulp” value is recorded as 30-80 CFU/ml. For the same compound, the “spores in pulp transportation water” value in experiment [2] (first period (Days 1-10)) is recorded as 15 CFU/ml. For the same compound, the “spore formation in the broke” value in experiment [5] (10 mg/l as active chlorine, 2 days experiment) was “did not cause any new spore formation”. Further, the spore counts in experiment [5] (10 mg/l as active chlorine, during the 2 days experiment) is recorded as 30-60 CPU/ml. Besides, the Bacterial spores in experiment [5] (1 days storage time) came out at 30 CFU/ml; in experiment [5] (2 days storage time), 60 CFU/ml. Further, the “stronger reduction of total aerobic bacteria content compared to free chlorine” value in experiment [6] (10 mg/l as active chlorine, after 1 day of storage) was 1 log unit. Moreover, the Total aerobic bacteria in experiment [6] (broke, 1 days storage time) was 6×10^4 CFU/ml; in experiment [6] (broke, 2 days storage time), 2 × 10^7 CFU/ml.

(Values after patent US11598051B2, “Method for manufacturing a fibrous web” (Kemira Oyj, priority 2017, dated 2023).)
